From PubChem BioAssay (NCI)
Several values for one entry are separate records, joined by “and”; a condition that tells them apart may be missing. Identical values can stand only once.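 Each compound was tested at five concentrations against cells in 96-well plates for 48 hours. Abbreviation: GI50, concentration required for 50% inhibition of growth. TGI is the concentration that stops growth completely.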 Where a SMILES comes first, the peptide text is derived from it. [ ]: non-standard residue; d: D form. The star is where a group is joined. ξ: configuration not given here. X3 = COc1ccc(C(N*)c2ccc(OC)cc2)cc1; NMeF = CN[C@@H](Cc1ccccc1)C(=O)O; NMeD = CN[C@@H](CC(=O)O)C(=O)O; NMeV = CN[C@H](C(=O)O)C(C)C; ξNMeV = CNC(C(=O)O)C(C)C; Boc = CC(C)(C)OC(=O)*; ξNMeA = CNC(C)C(=O)O; ξV = CC(C)C(N)C(=O)O

What was measured:
Test in all cases: growth of human tumour cells (NCI), 48 h
SK-MEL-5 melanoma = test system: SK-MEL-5 melanoma
MCF7 breast = test system: MCF7 breast
CCRF-CEM leukemia = test system: CCRF-CEM leukemia
HOP-62 NSCLC = test system: HOP-62 NSCLC
M14 melanoma = test system: M14 melanoma
A549 NSCLC = test system: A549 NSCLC
NCI-H460 lung = test system: NCI-H460 lung
SK-MEL-28 melanoma = test system: SK-MEL-28 melanoma
786-0 renal = test system: 786-0 renal
HCT-15 colon = test system: HCT-15 colon

| SMILES | GI50 (SK-MEL-5 melanoma) | TGI (SK-MEL-5 melanoma) | GI50 (MCF7 breast) | TGI (MCF7 breast) | GI50 (CCRF-CEM leukemia) | TGI (CCRF-CEM leukemia) | GI50 (HOP-62 NSCLC) | TGI (HOP-62 NSCLC) | GI50 (M14 melanoma) | TGI (M14 melanoma) | GI50 (A549 NSCLC) | TGI (A549 NSCLC) | GI50 (NCI-H460 lung) | TGI (NCI-H460 lung) | GI50 (SK-MEL-28 melanoma) | TGI (SK-MEL-28 melanoma) | GI50 (786-0 renal) | TGI (786-0 renal) | GI50 (HCT-15 colon) | TGI (HCT-15 colon) |
| --- | --- | --- | --- | --- | --- | --- | --- | --- | --- | --- | --- | --- | --- | --- | --- | --- | --- | --- | --- | --- |
| O=C1CCCCN1c1ccccc1C#C/C=C\C#Cc1ccccc1C(F)(F)F | 2.75 µM | 12.7 µM | 2.5 µM | > 50 µM | 1.56 µM | 3.96 µM | 0.899 µM | 2.94 µM | 0.909 µM | 2.29 µM | 1.57 µM | 5.16 µM | 2.16 µM | > 50 µM | 1.09 µM | 3.36 µM | 1.61 µM | 7.26 µM | 1.53 µM | 6.05 µM |
| O=C(O)c1nc2nc(Cl)c(Cl)nc2[nH]1 | – | > 100 µM | – | > 100 µM | – | > 100 µM | – | > 100 µM | – | > 100 µM | – | > 100 µM | – | > 100 µM | – | > 100 µM | – | > 100 µM | – | > 100 µM |
| CCN(C(=O)N1CCN(c2cc3c(cc2F)c(=O)c(C(=O)O)cn3C2CC2)CC1)c1nc(-c2ccc(Cl)cc2)cs1 | 1.99 µM | 15.9 µM | 2.97 µM | > 100 µM | 2.45 µM | > 100 µM | 1.6 µM | 17.7 µM | 2.12 µM | > 100 µM | 1.01 µM | > 100 µM | 0.96 µM | > 100 µM | 1.91 µM | > 100 µM | 2.41 µM | 15.4 µM | 0.967 µM | > 100 µM |
| CCn1c(-c2nonc2N)nc2c(C#CC(C)(C)O)nc(OC[C@@H](N)c3ccccc3)cc21 | 3.99 µM | 7.37 µM | 2.94 µM | 6.12 µM | 4.08 µM | 23.3 µM | 6.09 µM | 10.2 µM | 4.52 µM | 8.11 µM | 4.36 µM | 9.18 µM | 3.97 µM | 8.12 µM | 4.85 µM | 8.47 µM | 2.98 µM | 6.35 µM | 5.78 µM | 21.1 µM |
| COc1cc(C2CC(C)(O)Oc3cc4c(cc32)OCO4)cc(OC)c1OC (centres undefined) | – | 0.494 µM | – | 23.6 µM | – | > 100 µM | – | > 100 µM | – | > 100 µM | – | > 100 µM | – | 17.6 µM | – | > 100 µM | – | > 100 µM | – | > 100 µM |
| Cc1nnc(NC(=O)c2nc(S(=O)(=O)Cc3ccc(F)cc3)ncc2Cl)s1 | 17 µM | 31.4 µM | 3.29 µM | 17.6 µM | 1.52 µM | 3.65 µM | 19.8 µM | 39.3 µM | 2.88 µM | 10.3 µM | 18.8 µM | 35.3 µM | 17.4 µM | 35.1 µM | 1.73 µM | 3.26 µM | 4.32 µM | 15.5 µM | 1.84 µM | 3.91 µM |
| Nc1ccccc1SC(CC(=O)c1ccccc1)c1cccc([N+](=O)[O-])c1 (centres undefined) | 15.4 µM | 29 µM | 2.6 µM | 18 µM | 16 µM | 50.8 µM | 15.5 µM | 28.9 µM | 17.3 µM | 32.5 µM | 18.6 µM | 36.7 µM | 19.4 µM | 38.8 µM | 16.6 µM | 30.3 µM | 18.9 µM | 33.3 µM | 11.5 µM | 28.4 µM |
| Nc1cc(NN=C(c2ccc(O)cc2)c2ccc(O)cc2)c([N+](=O)[O-])cc1[N+](=O)[O-] | 1.52 µM | 2.85 µM | 1.56 µM | 3.28 µM | 2.54 µM | 6.13 µM | 2.13 µM | 3.98 µM | 1.71 µM | 3.49 µM | 2.29 µM | 5.69 µM | 1.79 µM | 3.47 µM | 1.6 µM | 3.56 µM | 1.83 µM | 3.43 µM | 1.78 µM | 4.13 µM |
| COc1ccc(C2[C@@H](c3ccccc3)C(=O)N2c2cc(OC)c(OC)c(OC)c2)cc1F (some centres undefined) | 0.0271 µM | 0.075 µM | 0.0296 µM | > 100 µM | 0.0361 µM | > 100 µM | 0.0379 µM | > 100 µM | 0.0226 µM | 0.0672 µM | 0.0368 µM | > 100 µM | 0.0344 µM | > 100 µM | 1.37 µM | > 100 µM | 0.0314 µM | > 100 µM | 0.0336 µM | > 100 µM |
| COc1ccc(C(NC(=O)C[C@@H](C(=O)N(C)C(C)C(=O)O)N(C)C(=O)[C@@H]2CCCN2C(=O)[C@H](C(C)C)N(C)C(=O)C(C(C)C)N(C)C(=O)[C@H](Cc2ccccc2)N(C)C(=O)C(NC(=O)OC(C)(C)C)C(C)C)c2ccc(OC)cc2)cc1 (some centres undefined) (Boc-[ξV][NMeF][ξNMeV][NMeV]P[NMeD](X3)[ξNMeA]-OH) | 15.2 µM | 12.7 µM and 28.5 µM | – | 37.5 µM | 19.8 µM | 17.5 µM and 41.6 µM | 18.5 µM | 31.8 µM and 35.5 µM | 17.4 µM | 28.6 µM and 31.1 µM | 17.1 µM | > 37.5 µM and 31.7 µM | 17.8 µM | 37.5 µM and 33.3 µM | 17.1 µM | 13.6 µM and 30.9 µM | 17.9 µM | 33.4 µM and 31.7 µM | 18.2 µM | 37.5 µM and 33.3 µM |
| CC1(C)OC1COc1c2occc2cc2ccc(=O)oc12 (centres undefined) | – | > 100 µM | – | > 100 µM | – | > 100 µM | – | > 100 µM | – | > 100 µM | – | > 100 µM | – | > 100 µM | – | > 100 µM | – | > 100 µM | – | > 100 µM |
| Cc1cc(I)cc(CN(CCCN(C)C)C(C)C)c1O | 16.4 µM | 30.2 µM | 18.8 µM | 36 µM | 0.116 µM | 1.03 µM | 16.1 µM | 30.6 µM | 16.2 µM | 31 µM | 18.2 µM | 39.6 µM | 15.9 µM | 29.8 µM | 16.5 µM | 34.3 µM | 15.7 µM | 30.5 µM | 17.5 µM | 39.5 µM |
| COc1cccc(-c2nc(-c3ccc(NC(=O)OC(C)C)cc3)[nH]c2-c2ccnc(Br)c2)c1 | 1.88 µM | 3.65 µM | 1.59 µM | 8.15 µM | 2.22 µM | > 100 µM | 2.92 µM | > 100 µM | 3.06 µM | > 100 µM | 2.96 µM | > 100 µM | 2.99 µM | > 100 µM | 2.55 µM | > 100 µM | 0.974 µM | > 100 µM | 1.19 µM | 4.79 µM |
| CCCCCCCCCCCCC(O)c1ccc(C#CCCCCCCCCCO)o1 (centres undefined) | 25.5 µM | 47.2 µM | 17.3 µM | 42.3 µM | 23.2 µM | 51.4 µM | 20.1 µM | 35.5 µM | 17.4 µM | 31.9 µM | 16.9 µM | 32.9 µM | 28.3 µM | 75.4 µM | 37.2 µM | > 100 µM | 18.9 µM | 34.4 µM | 18.2 µM | 36.8 µM |
| Oc1[nH]c2ccccc2c1N=Nc1nc(-c2ccc(Br)cc2)cs1 | – | 33.4 µM | – | > 100 µM | – | 61.8 µM | – | 28.6 µM | – | 59.2 µM | – | 70.8 µM | – | 65.8 µM | – | 53.9 µM | – | 35.8 µM | – | 68.3 µM |
| CCOP(=O)(OCC)C(F)(F)c1ccc(CC(NC(=O)OC(C)(C)C)C(=O)O)cc1 (centres undefined) | – | > 10 µM | – | > 10 µM | – | > 10 µM | – | > 10 µM | – | > 10 µM | – | > 10 µM | – | > 10 µM | – | > 10 µM | – | > 10 µM | – | > 10 µM |
| O=C1NC(=NC(CO)Cc2ccccc2)S/C1=C\c1ccc2ncccc2c1 (centres undefined) | > 25 µM and 5.17 µM | > 25 µM and 12.3 µM | 7.25 µM and 2.98 µM | > 25 µM | 10.6 µM and 4.89 µM | > 25 µM | > 23.4 µM and 6.05 µM | > 25 µM | 14 µM and 7.08 µM | > 25 µM | 16.4 µM and 2.96 µM | > 25 µM | 14.6 µM and 3.02 µM | > 25 µM | > 23.7 µM and 7.24 µM | > 25 µM and 24.4 µM | > 25 µM and 6.96 µM | > 25 µM | 10.5 µM and 4.19 µM | > 25 µM |
| CC1(COc2ccc3c(c2)ncn3-c2ccc3cccc(N4CCC(N)CC4)c3n2)COC1 | 2.31 µM and 2.12 µM | 6.7 µM and 5.22 µM | 2.17 µM and 2.2 µM | 6.54 µM and 7.83 µM | 2.02 µM and 1.39 µM | 6.44 µM and 5.86 µM | 1.74 µM and 1.49 µM | 6.59 µM and 9.02 µM | 3.55 µM and 2.68 µM | 10.1 µM and 6.77 µM | 1.83 µM and 2.39 µM | 4.45 µM and > 10 µM | 2.17 µM and 2.48 µM | 6.11 µM and 7.46 µM | 3.5 µM and 3.37 µM | 9.34 µM and 8.36 µM | 1.8 µM and 1.75 µM | 4.63 µM and 3.85 µM | 3.37 µM and 2.92 µM | 12.3 µM and > 10 µM |
| CC(C)c1cc2c(cc1S(=O)(=O)O)[C@@]1(C)CCC[C@@](C)(C(=O)O)C1CC2 (some centres undefined) | – | > 100 µM | – | > 100 µM | – | > 100 µM | – | > 100 µM | – | > 100 µM | – | > 100 µM | – | > 100 µM | – | > 100 µM | – | > 100 µM | – | > 100 µM |
| CC(=O)CC(OC(C)=O)C1=CCC2C(CC1C)OC(=O)C2C (centres undefined) | – | > 100 µM | – | > 100 µM | – | > 100 µM | – | > 100 µM | – | > 100 µM | – | > 100 µM | – | > 100 µM | – | > 100 µM | – | > 100 µM | – | > 100 µM |
| CC(C)=CCC(O)C1=CC(=O)c2c(O)ccc(O)c2C1=O (centres undefined) | – | 1.88 µM | – | 2.11 µM | – | 0.399 µM | – | 4.95 µM | – | 2.52 µM | – | 17.7 µM | – | 7.78 µM | – | 2.86 µM | – | 1.5 µM | – | 0.526 µM |
